Test results reported in paper PMC11679033, “Assessing the Potential Synergistic/Antagonistic Effects of Citrinin and Cannabidiol on SH-SY5Y, HepG2, HEK293 Cell Lines, and Human Lymphocytes” (Toxins, 2024).
Marks after values point to notes of the source that are not given here.

How the values were obtained:
[1] = test system: human peripheral blood lymphocytes; assay: Alkaline comet assay; format: cell-based; conditions: 24 h; CIT 30 µM, CBD 1 µM, bleomycin 1.25 µg/mL
Experimental: (§1) The experimental design included the establishment of lymphocyte cultures, and the 24 h treatments with the test compounds, performed according to the last OECD recommendations, given in the Test Guideline No. 487—In Vitro Mammalian Cell Micronucleus Test.
(§2) The selection of specific concentrations of test compounds adhered to the guidelines for in vitro genotoxicity testing using comet assay. […] Solutions used in testing were prepared just prior to treatment by dissolving the test compounds in ethanol (Kemika, Zagreb, Croatia).
(§3) Two independent trials, with six experimental groups each, were conducted. A total of six replicate cultures for every single experimental group were established. This step was carried out as follows: aliquots of heparinized blood (V = 600 μL per culture) were pipetted into a growth medium RPMI-1640 (Gibco, Grand Island, NY, USA) supplemented with 10% fetal calf serum (Gibco, Grand Island, NY, USA) and antibiotics (penicillin and streptomycin; Sigma-Aldrich, Steinheim, Germany). Lymphocytes were stimulated with a mitogen phytohemagglutinin (Remel, Lenexa, KS, USA) in order to induce cell division prior to exposure to the test chemicals. Cultures were maintained in the humidified atmosphere of 5% CO2 at 37 °C (Heraeus Hera Cell 240 incubator; Langenselbold, Germany).
(§4) Negative controls (NCs) were non-treated lymphocytes. Solvent controls (SCs) were lymphocytes treated with ethanol (its final concentration in the culture corresponded to 0.03%). Positive controls (PCs) were lymphocytes treated for 24 h with bleomycin at 1.25 µg/mL (according to [69]). The other three groups were lymphocytes exposed to single CIT, single CBD, and their combination (CIT + CBD, at the same concentrations).
(§5) Treatments with test compounds started 20 h after the initial establishment of the cell cultures and lasted for 24 h. Upon completion of the exposure, aliquots of 100 µL of the treated cultures were pipetted in sterile conditions and used to prepare microgels for the alkaline comet assay. The remaining content of flasks was further processed using Cytokinesis-Block Micronucleus Cytome (CBMN Cyt) Assay.

[2] = test system: human peripheral blood lymphocytes; assay: Lymphocyte proliferation / cytotoxicity (CBPI, RI); format: cell-based; conditions: 24 h, citrinin 7.50 µg/mL, CBD 3.15 µg/mL, bleomycin 1.25 µg/mL
Excerpt: On the same slides, parameters of cell proliferation, cytostasis and cytotoxicity were studied, according to recommendations by OECD 2023 [67]. For that purpose, the numbers of mono-, bi-, tri-, and quadrinuclear cells (i.e., M1, M2, M3, M4) were scored at 400× magnification using a light microscope (Leitz, Oberkochen, Germany). The total number of M1 to M4 cells counted per experimental group was 3000 (i.e., 6 × 500 cells).
Based on the scored ratios of M1 to M4 cells, the Cytokinesis-Block Proliferation Index (CBPI) was calculated, using the formula: CBPI = [(No. of mononucleated cells) + (2 × No. of binucleated cells) + (3 × No. of multinucleated cells)]/(Total number of cells).
To establish the relative number of cell cycles per cell during the period of exposure to cytoB in treated compared to control cultures, the Replication Index (RI) was also calculated according to the formula:RI = {[(<No. binucleated cells> + <2 × No. multinucleated cells>)/(Total number of cells in treated culture)]/[(<No. binucleated cells> + <2 × No. multinucleated cells>) […] (Total number of cells in control culture)]} × 100
Finally, from the obtained values of RI, the cytotoxicity estimate was deduced, as % Cytotoxicity = […].

[3] = test system: human peripheral blood lymphocytes; assay: Cytokinesis-Block Micronucleus Cytome (CBMN Cyt) Assay; conditions: 24 h, citrinin 30 µM, CBD 1 µM, bleomycin 1.25 µg/mL
Experimental: as §1, §2, §3, §4, §5
CBMN Cyt Assay was performed according to standard protocols proposed for micronucleus assay. Upon completion of the exposure, lymphocyte cultures were subjected to centrifugation at 100× g using a benchtop centrifuge (ROTOFIX 32A, Hettich, Tuttlingen, Germany). During this process, cells settled to the bottom of the tube. The growth medium with tested compounds was removed by pipetting, discarded and replaced with a fresh amount of complete growth medium RPMI-1640 that contained Cytochalasin B (cytoB; Sigma-Aldrich, Steinheim, Germany) at a final concentration of 6 µg/mL. This procedure was timed to the 44th hour of lymphocyte cultivation, as that time is a critical point for the addition of cytoB to inhibit cytokinesis and obtain binucleated cells. All treated and control cultures were further maintained in the previously described conditions at 37 °C until the end of the 72nd hour of cultivation, as proposed by protocols. Then, the preparation of microscopic slides started, which included harvesting of cells by centrifugation (100× g, ROTOFIX 32A centrifuge, Hettich, Tuttlingen, Germany), followed by hypotonic treatment (0.075 mol/L KCl; Kemika, Zagreb, Croatia), and a new round of centrifugation. The resulting sediments of cells were fixed in several repeating stages with methanol–acetic acid (3:1 v/v; both obtained from Kemika, Zagreb, Croatia) followed by centrifugation. The final lymphocyte suspension was dropped onto clean microscope slides.

Substance: bleomycin [Positive Control]
- tail intensity, mean value ± SE [1]: 14.81 ± 0.59%
- Cytokinesis-Block Proliferation Index ([2]; 3000 cells scored): 1.60^↓nc, sc, cit, cbd,&
- Cytotoxicity (%) ([2]; deduced from RI): 41.25%
- Replication Index (%) ([2]; relative to negative control): 58.75%
- Distribution of BNMN Cells with 1 MN ([3]; in 6000 BN cells): 99 ^a,b,c,d,e
- Distribution of BNMN Cells with 2 MNi ([3]; in 6000 BN cells): 20 ^a,b,c,d,e
- Distribution of BNMN Cells with 3 MNi ([3]; in 6000 BN cells): 3
- Distribution of BNNB Cells with 1 NB ([3]; in 6000 BN cells): 85 ^a,b,c,d,e
- Distribution of BNNB Cells with 2 NBs ([3]; in 6000 BN cells): 12 ^a,b,c,d,e
- Micronuclei (MNi) and BNMN Cells: Total (BNNB)6000 ([3]; in 6000 BN cells): 122 ^a,b,c,d,e
- Micronuclei (MNi) and BNMN Cells: Total (MNi)6000 ([3]; in 6000 BN cells): 148 ^a,b,c,d,e
- Nuclear Buds (NBs) and BNNB Cells: Total (BNNB)6000 ([3]; in 6000 BN cells): 97 ^a,b,c,d,e
- Nuclear Buds (NBs) and BNNB Cells: Total (NBs)6000 ([3]; in 6000 BN cells): 109 ^a,b,c,d,e
- Nucleoplasmic Bridges (NPBs) and BNNPB Cells: Total (BNNPB)6000 ([3]; in 6000 BN cells): 9 ^a,b,c,d,e
- Nucleoplasmic Bridges (NPBs) and BNNPB Cells: Total (NPBs)6000 ([3]; in 6000 BN cells): 9 ^a,b,c,d,e
- Cell Death: Total (Apoptosis)6000 ([3]; in 6000 cells): 94 ^a,b,c,d,e
- Cell Death: Total (Necrosis)6000 ([3]; in 6000 cells): 71 ^a,b,c,d,e
- Micronuclei (MNi) and BNMN Cells: Mean (BNMN)1000 ± SD ([3]; per 1000 BN cells): 20.3 ± 2.9 ^a,b,c,d,e
- Micronuclei (MNi) and BNMN Cells: Mean (MNi)1000 ± SD ([3]; per 1000 BN cells): 24.7 ± 2.5 ^a,b,c,d,e
- Nuclear Buds (NBs) and BNNB Cells: Mean (BNNB)1000 ± SD ([3]; per 1000 BN cells): 16.2 ± 5.0 ^a,b,c,d,e
- Nuclear Buds (NBs) and BNNB Cells: Mean (NBs)1000 ± SD ([3]; per 1000 BN cells): 18.2 ± 6.5 ^a,b,c,d,e
- Nucleoplasmic Bridges (NPBs) and BNNPB Cells: Mean (BNNPB)1000 ± SD ([3]; per 1000 BN cells): 1.5 ± 0.8 ^a,b,c,d,e
- Nucleoplasmic Bridges (NPBs) and BNNPB Cells: Mean (NPBs)1000 ± SD ([3]; per 1000 BN cells): 1.5 ± 0.8 ^a,b,c,d,e
- Cell Death: Mean (Apoptosis)1000 ± SD ([3]; per 1000 cells): 15.7 ± 5.6 ^a,b,c,d,e
- Cell Death: Mean (Necrosis)1000 ± SD ([3]; per 1000 cells): 11.8 ± 3.6 ^a,b,c,d,e
